These results are taken from patent publication US5698544A, “Cephem compound, process for producing the compound, and antimicrobial composition containing the same” (Otsuka Kagaku Kabushiki Kaisha, priority 1994, dated 1997).

Converted amounts (≈) assume the structure as drawn. Some results are limits rather than exact numbers.

In one assay the test system is S. aureus FDA 209-P. Briefly: Agar plate dilution assay (MIC), S. aureus FDA 209-P. The assay is classed as cell-based. The settings on record: Staphylococcus aureus, FDA209, inoculum size 10^6 cells/ml.
For another assay, the system named is E. coli NIHJ JC-2. Briefly: Agar plate dilution assay (MIC), E. coli NIHJ JC-2. The assay is classed as cell-based. The settings on record: Escherichia coli, NIHJJC2, inoculum size 10^6 cells/ml.
Another assay deals with MRSA 92-1044. Kind of assay: Agar plate dilution assay (MIC), MRSA 92-1044. The assay is classed as cell-based, methicillin-resistant Staphylococcus aureus. The settings on record: Staphylococcus aureus, inoculum size 10^6 cells/ml.
The next assay relates to S. marcescens IFO-12648. Kind of assay: Agar plate dilution assay (MIC), S. marcescens IFO-12648. The assay is classed as cell-based. Particulars: Serratia marcescens, IFO12648, inoculum size 10^6 cells/ml.
A further assay has as its system E. faecalis ATCC-21212. Kind of assay: Agar plate dilution assay (MIC), E. faecalis ATCC-21212. The assay is classed as cell-based. The settings on record: Enterococcus faecalis, ATCC21212, inoculum size 10^6 cells/ml.

As a reminder, the MIC is the lowest concentration that inhibits growth of the organism. Low values mean a more susceptible organism, high ones a less susceptible organism. `C[N+](C)(C)CC[n+]1ccc(SC=CC2=C(C(=O)O)N3C(=O)C(NC(=O)C(=NOC4CCCC4)c4csc(N)n4)C3SC2)cc1` (centres unmarked) [(a)]: the MIC against S. aureus FDA 209-P was 0.39 µg/mL; with E. coli NIHJ JC-2 it was 0.39 µg/mL; against MRSA 92-1044, 6.25 µg/mL; in the assay on S. marcescens IFO-12648, 3.13 µg/mL; against E. faecalis ATCC-21212, 0.39 µg/mL.

In the case of `C[N+](C)(C)CC[n+]1ccc(SC=CC2=C(C(=O)O)N3C(=O)C(NC(=O)C(=NO)c4csc(N)n4)C3SC2)cc1` (centres unmarked) [(b)], the MIC in the assay with S. aureus FDA 209-P came out at 0.1 µg/mL; against E. coli NIHJ JC-2 it was 0.05 µg/mL; against MRSA 92-1044, 1.56 µg/mL; against S. marcescens IFO-12648, 0.1 µg/mL; against E. faecalis ATCC-21212 it was 0.1 µg/mL.

For `C[N+](C)(CC[n+]1ccc(SC=CC2=C(C(=O)O)N3C(=O)C(NC(=O)C(=NO)c4csc(N)n4)C3SC2)cc1)CC(N)=O` (centres unmarked) [(c)], the MIC was 0.1 µg/mL in the assay on S. aureus FDA 209-P; 0.025 µg/mL with E. coli NIHJ JC-2; 1.56 µg/mL with MRSA 92-1044; 0.1 µg/mL with S. marcescens IFO-12648; 0.1 µg/mL with E. faecalis ATCC-21212.

Take `CC(=O)C[N+](C)(C)CC[n+]1ccc(SC=CC2=C(C(=O)O)N3C(=O)C(NC(=O)C(=NO)c4csc(N)n4)C3SC2)cc1` (centres unmarked) [(d)]: the MIC against S. aureus FDA 209-P was 0.2 µg/mL; against E. coli NIHJ JC-2 it was 0.025 µg/mL; with MRSA 92-1044, 1.56 µg/mL; against S. marcescens IFO-12648, 0.2 µg/mL; in the assay with E. faecalis ATCC-21212 it was 0.2 µg/mL.

For the compound `C[N+](C)(CCO)CC[n+]1ccc(SC=CC2=C(C(=O)O)N3C(=O)C(NC(=O)C(=NO)c4csc(N)n4)C3SC2)cc1` (centres unmarked) [(e)], the MIC in the assay on S. aureus FDA 209-P is 0.1 µg/mL; in the assay with E. coli NIHJ JC-2, 0.05 µg/mL; against MRSA 92-1044 it was 1.56 µg/mL; in the assay on S. marcescens IFO-12648 it was 0.1 µg/mL; in the assay on E. faecalis ATCC-21212, 0.1 µg/mL.

On to `C[N+]1(CC[n+]2ccc(SC=CC3=C(C(=O)O)N4C(=O)C(NC(=O)C(=NO)c5csc(N)n5)C4SC3)cc2)CCOCC1` (centres unmarked) [(f)], for which the MIC in the assay with S. aureus FDA 209-P stood at 0.1 µg/mL; in the assay with E. coli NIHJ JC-2, 0.025 µg/mL; against MRSA 92-1044 it was 1.56 µg/mL; against S. marcescens IFO-12648 it was 0.1 µg/mL; against E. faecalis ATCC-21212, 0.2 µg/mL.

As to `CO[C@@]1(NC(=O)CSC(F)F)C(=O)N2C(C(=O)O)=C(CSc3nnnn3CCO)CO[C@@H]21` [FMOX, flomoxef, reference compound], the MIC against S. aureus FDA 209-P was 0.2 µg/mL (≈ 0.403 µM); against E. coli NIHJ JC-2 it was 0.05 µg/mL (≈ 0.101 µM); against MRSA 92-1044, > 100 µg/mL; against S. marcescens IFO-12648, 0.2 µg/mL (≈ 0.403 µM); against E. faecalis ATCC-21212, 100 µg/mL (≈ 201 µM).
